{
  "source": "patent US11317628B2",
  "about": "“Microparticle compositions comprising saflufenacil” (BASF Agro B.V., priority 2015, dated 2022)",
  "origin": "cited, not measured here",
  "details": "background statement",
  "data": [
    {"smiles": "CC(C)N(C)S(=O)(=O)NC(=O)c1cc(-n2c(=O)cc(C(F)(F)F)n(C)c2=O)c(F)cc1Cl", "note": "[Saflufenacil, 2-chloro-5-[3,6-dihydro-3-methyl-2,6-dioxo-4-(trifluoromethyl)-1-(2H)pyrimidinyl]-4-fluoro-N-[[methyl(1-methylethyl)amino]sulfonyl]benzamide]", "values": [
      {"measurement": "Solubility in water", "value": "only sparingly soluble in water"}
    ]}
  ]
}
